In one assay the test system is Lrp5−/− mice. The assay can be described thus: pCPA treatment of WT and Lrp5−/− mice: bone histomorphometry, serum serotonin, gut TPH1 and brain TPH2 expression. The conditions noted are these: 300 mg/kg pCPA intraperitoneally three times per week, from 3 weeks to 12 weeks of age. It counts as in vivo. The protocol: Consistent with the conclusion that the increase in serum serotonin level is responsible fully or partly for the bone phenotype of the Lrp5−/− mice is the discovery that pCPA, a serotonin synthesis inhibitor (Eldridge et al., 1981, Ann. Rev. Physiol. 43:121-135), prevented the appearance of the Lrp5−/− bone phenotype by decreasing serotonin production. WT and Lrp5−/− mice were treated with 300 mg/kg pCPA intraperitoneally three times per week, from 3 weeks to 12 weeks of age (FIG. 7A) and the changes in serum serotonin levels, TPH1 expression in gut and TPH2 expression in brain stem were analyzed. Bone histomorphometry was also performed. […] This rescue of the Lrp5 −/− phenotype was achieved by normalization of the gut TPH1 mRNA and of serum serotonin levels (FIGS. 7C and 7D).
Generation of Lrp5−/− (Kato et al., 2002, J. Cell Biol. 157:303-314) β-cateninfloxed/floxed (Glass et al., 2005, Dev. Cell 8:751-764), α1(I)collagen-cre transgenic (Dacquin et al., 2002, Dev. Dyn. 224:245-251) and Htt−/− (Ansorge et al., 2008, J. Neurosci. 28:199-207) mice were as described previously. Lrp5+/−;Htt+/− double heterozygous mice were generated by crossing Lrp5+/− and Htt+/− mice. Three week-old Wt or Lrp5−/− mice were administered pCPA on alternate days for 9 weeks by i.p. All animal protocols were approved by the Animal Care Committees of Columbia University.
Static histomorphometry measurements were performed as previously described in accordance with standard nomenclature, using the Osteomeasure Analysis System (Osteometrics, Inc) (Ducy et al., 2000, Cell 100:197-207). Four to 9 animals were assigned per group.
Serotonin serum levels were quantified using immunoassay kits from Fitzgerald (Serotonin) and serotonin levels in the different regions of the brain were quantified by HPLC method as described previously (Mann et al., 1992, Arch. Gen. Psychiatry 49:442-446).

A further assay addresses rb 5-HT1B receptors (Oryctolagus cuniculus, UniProt P49144). The conditions noted are these: British Journal of Pharmacology (1997) 120, 153; cited from earlier work.
A further assay concerns Cyclin D1 mouse promoter. The experiment in a line: ChIP analysis of CREB binding to the Cyclin D1 promoter in primary osteoblasts treated with serotonin. It counts as cell-based. The protocol: (§1) Decreased expression of Cyclin D1 is a major feature of both Lrp5 deficiency and serotonin treatment of osteoblasts (FIGS. 1 and 8). One transcription factor that is known to modulate the expression of cyclin genes and is expressed in osteoblasts is CREB (Fu et al., 2005, Cell 122:803-815). Therefore, whether serotonin could decrease CREB activity in these cells was tested. […] Furthermore, a CREB binding site in the Cyclin D1 mouse promoter was identified and it was shown using ChIP assays that serotonin decreased binding of CREB to this promoter (FIG. 9B). These two observations raise the hypothesis that CREB could be mediating serotonin action on osteoblasts.
(§2) Osteoblasts were treated in serum-free medium with vehicle or Serotonin (50 to 100 μM, Sigma) for 24 hr. Total RNA were extracted with Trizol (Invitrogen). cDNA were generated using the ABI Reverse transcriptase system and random hexanucleotide primers. Real-time PCR was performed using superarray primers on a Stratagene real time PCR cycler and Actin expression was used as endogenous control. Chromatin immunoprecipitation assays (ChIP) were performed by standard procedures using primary osteoblasts. Microarray analysis was performed as described previously (Glass et al., 2005, Dev. Cell 8:751-764).

The subject of a further assay is CREB. The assay can be described thus: Western blot analysis of CREB phosphorylation in primary osteoblasts treated with serotonin. It counts as cell-based, mouse. The conditions noted are these: serotonin 50 to 100 μM. The protocol: as §1
Osteoblasts were treated in serum-free medium with vehicle or Serotonin (50 to 100 μM, Sigma) for 24 hr. Lysates from primary osteoblasts or crushed frozen bones were prepared in RIPA buffer in the presence of protease and phosphatase inhibitors. Twenty to 60 μg of proteins were separated by SDS-PAGE in reducing conditions and transferred on nitrocellulose membrane using standard protocols. Membranes were incubated with primary antibodies including total or anti-Phospho CREB (Cell Signaling Technology).
For orientation: A western blot detects proteins with antibodies after separation by electrophoresis.

A further assay deals with primary osteoblasts. The assay can be described thus: Real-time PCR analysis of cyclin and osteoblast-specific gene expression in primary osteoblasts treated with serotonin. It counts as cell-based, mouse. The settings on record: serotonin 50 to 100 μM, 24 hr, vs vehicle. The protocol:
To test whether serotonin regulates the expression of cyclins in osteoblasts, a real-time PCR analysis of cyclin expression in primary osteoblasts treated with serotonin or vehicle was performed. […] In contrast, expression of Runx2, Osteocalcin and Type I collagen was not modified (FIG. 8B).
Calvaria osteoblasts were extracted by triple collagenase/trypsine digestion from 4 day-old CD1 pups and differentiated with ascorbic acid as previously described (Ducy et al., 2000, Cell 100:197-207).
as §2
(In general: Real-time PCR tracks product formation cycle by cycle.)

A further assay deals with 5-HT1B receptor (Homo sapiens, UniProt P28222). The settings on record: selective 5-HT1B receptor antagonist; British Journal of Pharmacology (2003) 138, 71-80; cited from earlier work.
5-HT1B receptor, sequence (P28222 whole entry): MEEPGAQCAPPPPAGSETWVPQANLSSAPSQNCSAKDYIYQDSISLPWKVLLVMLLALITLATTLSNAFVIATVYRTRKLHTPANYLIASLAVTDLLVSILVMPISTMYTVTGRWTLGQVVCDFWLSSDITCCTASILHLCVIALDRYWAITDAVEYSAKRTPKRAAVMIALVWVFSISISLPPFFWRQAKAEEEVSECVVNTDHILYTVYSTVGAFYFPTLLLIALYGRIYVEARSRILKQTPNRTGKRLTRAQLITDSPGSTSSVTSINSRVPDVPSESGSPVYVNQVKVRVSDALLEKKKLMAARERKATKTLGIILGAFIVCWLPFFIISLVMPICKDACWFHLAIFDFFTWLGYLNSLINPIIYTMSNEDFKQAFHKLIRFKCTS

SMILES strings stand for the structures. “Also recorded” adds a separate entry of the source. Where a name gives a salt, the structure may show the parent alone.

rb 5-HT1B receptors, sequence (P49144 whole entry): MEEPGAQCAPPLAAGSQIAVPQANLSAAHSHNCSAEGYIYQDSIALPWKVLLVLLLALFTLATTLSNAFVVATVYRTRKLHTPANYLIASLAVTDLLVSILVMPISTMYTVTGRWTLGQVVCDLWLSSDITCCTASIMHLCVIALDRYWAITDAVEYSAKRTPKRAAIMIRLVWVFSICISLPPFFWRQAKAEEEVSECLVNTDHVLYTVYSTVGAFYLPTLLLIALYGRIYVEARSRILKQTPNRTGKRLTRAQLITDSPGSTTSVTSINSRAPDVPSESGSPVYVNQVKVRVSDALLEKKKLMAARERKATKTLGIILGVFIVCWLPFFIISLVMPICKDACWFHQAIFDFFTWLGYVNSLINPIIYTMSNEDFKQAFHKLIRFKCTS

Take `NC(Cc1ccc(Cl)cc1)C(=O)O` (stereo not drawn) [pCPA, para-chlorophenylalanine]: in the assay on Lrp5−/− mice (Lrp5−/− mice), the “gut TPH1 mRNA” value was “normalization”. In the assay on Lrp5−/− mice (Lrp5−/− mice, 300 mg/kg), the “bone abnormalities (bone histomorphometry)” value was “corrects bone abnormalities; also recorded: corrects their low bone phenotype; also recorded: corrected the bone abnormalities” and the serum serotonin levels result was “normalizes; also recorded: normalization”. The bone mass entry in the assay with Lrp5−/− mice (WT mice) is given as “without overtly affecting bone mass”. Besides, in the assay with Lrp5−/− mice (treated mice), the “Brain TPH2 mRNA levels” value is recorded as “not affected”.

As to `O=C(c1ccc(F)cc1)C1CCN(CCn2c(=O)[nH]c3ccccc3c2=O)CC1` [ketanserin], the “mode of antagonism at rb 5-HT1B receptors” value on rb 5-HT1B receptors is “silent, competitive antagonists”.

With `NCCc1c[nH]c2ccc(O)cc12` [serotonin, 5-hydroxytryptamine], in the assay on Cyclin D1 mouse promoter, the “binding of CREB to the Cyclin D1 promoter (ChIP)” value was “decreased”. Besides, the CREB phosphorylation entry in the assay on CREB is on record as “significantly decreased”. In the assay with primary osteoblasts, the “expression of Cyclin D1” value is reported as “decreased”, the “expression of Cyclin D2” value is on record as “decreased”, the “expression of Osteocalcin” value is on record as “not modified” and the “expression of Runx2” value is recorded as “not modified”. The “expression of Type I collagen” value with primary osteoblasts is “not modified”.

By Kb is commonly meant the affinity of an antagonist, worked out from how it opposes an agonist. `CN(C)CCCc1cc(C(=O)Nc2ccc(-c3ccncc3)cc2)ccc1O` [GR 55562, 3-[3-(dimethylamino)propyl]-4-hydroxy-N-[4-(4-pyridinyl)phenyl]benzamide dihydrochloride]: at 5-HT1B receptor, the Kb was roughly 100 nM.

As for `CSc1ccc2c(c1)C(N1CCN(C)CC1)Cc1ccccc1S2` (stereo not drawn) [methiothepin], the “mode of antagonism at rb 5-HT1B receptors” value at rb 5-HT1B receptors is given as “silent, competitive antagonists”.

Values taken from patent US8815883B2, “Compounds and methods for inhibiting serotonin synthesis” (The Trustees of Columbia Unviersity in the City of New York, priority 2009, dated 2014).
